Source: US20020061896A1, “Imidazopyrimidine nucleoside analogues with anti-HIV activity” (priority 1999, published 2002)
Where a name gives a salt, the structure may show the parent alone. Read-outs that look alike come from different tables or passages of the source.

Columns and labels:
Type in all cases: cell-based
HIV-1 = assay: Antiviral activity (HIV-1 infection assays with cell lines); conditions: Human immunodeficiency virus 1
Method: (§1) HIV-1 infection assays with cell lines.
(§2) Laboratory strains of HIV-1, HIV-2, simian immunodeficiency virus, strains with know resistance to indicated drugs, or a low-passage (clinically derived) isolates are used to infect established cell lines by using a specific multiplicity of infection (MOI) of the virus for 1 hour at 37° C. prior to washing the cells and resuspension in medium containing increasing concentrations of drug (or test compound). At 4 to 6 days post-infection, drug-treated and control wells are analyzed for an HIV-1 induced cytopathic effect and/or for the presence of viral reverse transcriptase (RT) or viral p24 antigen in the culture medium (Buckheit and Swanstrom 1991; Ojwang et al. 1994, 1995a, Rando et al. 1995).

[1] = Cytotoxicity (table Antiviral Activity & Cytotoxicity); conditions: established cell lines
HIV [2] = assay: Antiviral activity using T cells; conditions: Human immunodeficiency virus 1, T-cell
Method: as §1, §2

[3] = Cytotoxicity using T cells
HIV [4] = assay: HIV infection assay in cell lines (MT-2, MT-4, Jurkat)
Method: as §1, §2

[5] = Cytotoxicity in MT-2 cells; conditions: human
Cytotoxicity in PBMCs = conditions: human
Method: (§3) Peripheral blood mononuclear cells (PBMCs), Core blood mononuclear cells (CBMCs) and peripheral blood lymphocytes (PBLs) are isolated from the blood of HIV-1 negative and hepatitis B virus-negative (healthy) donors by using the Ficoll-Hypaque density gradient centrifugation technique and are then cultured as described by Gartner and Popovic (1990).

HIV [6] = assay: HIV infection of PBMCs; conditions: Human immunodeficiency virus 1, PBMC, read-out: HIV IC50 (uM) PBMCs
Method: HIV-1 infection of PBMCs, CBMCs, and PBL.
as §3
PBMCs or CBMCs (2×10^5 cells/well) were infected with various isolates of HIV-1 at an MOI of 0.01. After 2 hours at 37C the cells are washed and treated with various concentrations of drug or test compound (Buckheit and Swanstrom 1991; Ojwang et al. 1995a). Seven days post-infection, HIV-1 replication was analyzed by the measuring the levels of RT or p24 in the culture medium.

[7] = antiviral activity, read-out: IC50
[8] = Human immunodeficiency virus 1, MT2, read-out: HIV IC50 (uM) MT-2
[9] = peripheral blood mononuclear cells (PBMCs), read-out: CC50 (uM) PBMCs

Compound	CC50 [1] [µM]	IC50 (HIV [2]) [µM]	CC50 [3] [µM]	further results
O=c1n([C@H]2CO[C@@H](CO)O2)cc(F)c2nc(-c3ccc([N+](=O)[O-])cc3)cn12 [Compound 50]	> 100	0.44	> 100	IC50 (HIV-1; [7]): 0.44 µM; IC50 (HIV [4]; [8]): 2.8 µM; CC50 [5]: > 10 µM
O=c1n([C@H]2CO[C@@H](CO)O2)cc(F)c2nc(-c3ccc(F)cc3)cn12 (stereo in doubt) [Compound 48]	> 100	0.026	> 100	IC50 (HIV-1; [7]): 0.026 µM
O=c1n([C@H]2CO[C@@H](CO)O2)ccc2nc(-c3ccc(F)cc3)cn12 [Compound 44, 2-(4-FLUOROPHENYL)-6-[(2R,4R)-2- HYDROXYMETHYL-1,3-DIOXOLAN-4-YL]- 5,6-DIHYDRO[1,3]DIAZOLO[1,2- C][1,3]DIAZIN-5-ONE]	> 100	0.0032	> 100	IC50 (HIV-1; [7]): 0.003 µM
O=c1n([C@H]2CO[C@H](CO)O2)cc(F)c2nc(-c3ccc(F)cc3)cn12 [Compound 55]	–	48	> 100	–
O=c1n([C@@H]2CO[C@H](CO)O2)cc(F)c2nc(-c3ccc([N+](=O)[O-])cc3)cn12 [Compound 49]	–	–	–	IC50 (HIV-1): 0.005 µM; IC50 (HIV [4]; Human immunodeficiency virus 1, Jurkat, read-out: HIV IC50 (uM) Jurkat): 0.24 µM; IC50 (HIV [4]; [8]): 0.13 µM; IC50 (HIV [4]; Human immunodeficiency virus 1, MT4, read-out: HIV IC50 (uM) (MT-4)): 0.015 µM; CC50 [5]: 6.5 µM; CC50 (Cytotoxicity in PBMCs; [9]): < 10 µM
O=c1n([C@@H]2CO[C@H](CO)O2)ccc2nc(-c3ccc([N+](=O)[O-])cc3)cn12 [Compound 45, L2-(4-NITROPHENYL)-6-[(2S,4S)-2- HYDROXYMETHYL-1,3-DIOXOLAN-4-YL]- 5,6-DIHYDRO[1,3]DIAZOLO[1,2- C][1,3]DIAZIN-5-ONE]	–	0.25	10	IC50 (HIV [4]; [8]): 3 µM; CC50 [5]: 2 µM
O=c1n([C@H]2CO[C@@H](CO)O2)ccc2nc(-c3ccccc3)cn12 [Compound 62, 6-(2-HYDROXYMETHYL-[1,3]DIOXOLAN- 4-YL)-2-PHENYL-6H-IMIDAZO[1,2-C]PYRIMIDIN-5-ONE]	–	–	–	IC50 (HIV [6]; PBMCs): 8 µM; CC50 (Cytotoxicity in PBMCs; [9]): > 10 µM
O=c1n([C@@H]2CC[C@H](CO)O2)ccc2nc(-c3ccc([N+](=O)[O-])cc3)cn12 [Compound 31, 6-[(2S,5R)-5-HYDROXYMETHYL OXOLAN-2-YL]-2-(4-NITROPHENYL)-5,6- DIHYDRO[1,3]-DIAZOLO[1,2-C][1,3]DIAZIN-5-ONE]	–	9.7	45	–
O=c1n([C@@H]2CO[C@@H](CO)O2)cc(F)c2nc(-c3ccc([N+](=O)[O-])cc3)cn12 [Compound 58]	> 100	60	> 100	IC50 (HIV-1): 60 µM
O=c1n([C@H]2CC[C@@H](CO)O2)ccc2nc(-c3ccc([N+](=O)[O-])cc3)cn12 [Compound 32, 2-(4- NITROPHENYL)-6-[(2R,5S)-5- HYDROXYMETHYLOXOLAN-2-YL]-5,6- DIHYDRO[1,3]-DIAZOLO[1,2-C][1,3]DIAZIN-5-ONE]	–	7	> 100	–
O=c1n([C@@H]2CC[C@H](CO)O2)cc(F)c2nc(-c3ccc(F)cc3)cn12 [Compound 33, 8-FLUORO-2-(4-FLUOROPHENYL)-6- [(5R,2S)-5-HYDROXYMETHYL OXOLAN- 2-YL]-5,6-DIHYDRO[1,3]DIAZOLO[1,2- C][1,3]DIAZIN-5-ONE]	–	4	90	–
CC(C)[C@H](N)C(=O)OCC1OC[C@H](n2ccc3nc(-c4ccc(F)cc4)cn3c2=O)O1 (some centres unmarked) [Compound 60, 2-AMINO-3-METHYL-BUTYRIC ACID 4-[2- (4-FLUORO-PHENYL)-5-OXO-IMIDAZO [1,2-C]PYRIMIDIN-6-YL]-[1,3]DIOXOLAN-2- YLMETHYL ESTER; HYDROCHLORIDE SALT]	–	–	–	IC50 (HIV [6]): 0.6 µM; CC50 (Cytotoxicity in PBMCs): > 10 µM
O=c1n([C@H]2CO[C@H](CO)O2)ccc2nc(-c3ccc([N+](=O)[O-])cc3)cn12 [Compound 53]	–	0.4	> 10	–
O=c1n([C@H]2CO[C@@H](CO)O2)ccc2nc(-c3ccc([N+](=O)[O-])cc3)cn12 [Compound 46, 2-(4-NITROPHENYL)-6-[(2R,4R)-2- HYDROXYMETHYL-1,3-DIOXOLAN-4-YL]- 5,6-DIHYDRO[1,3]DIAZOLO[1,2- C][1,3]DIAZIN-5-ONE]	> 100	0.1	> 100	IC50 (HIV-1; [7]): 0.1 µM
O=c1n(C2CO[C@H](CO)O2)ccc2nc(-c3ccc(F)cc3)cn12 (stereo in doubt) [Compound 43, 2-(4-FLUOROPHENYL)-6-[(2S,4S)-2- HYDROXYMETHYL-1,3-DIOXOLAN-4-YL]- 5,6-DIHYDRO[1,3]DIAZOLO[1,2- C][1,3]DIAZIN-5-ONE]	–	0.31	> 100	–
O=c1n([C@H]2CC[C@@H](CO)O2)cc(F)c2nc(-c3ccc([N+](=O)[O-])cc3)cn12 [Compound 36, 8-FLUORO-2-(4-NITROPHENYL)-6- [(2R,5S)-5-HYDROXYMETHYL OXOLAN- 2-YL]-5,6-DIHYDRO[1,3]-DIAZOLO[1,2- C][1,3]DIAZIN-5-ONE]	–	1	> 100	–
